Reference: patent publication US12195427B2, “MASP-2 inhibitors and methods of use” (priority 2018, dated 2025)

Molecular target: MASP-2 CCP2-SP (Homo sapiens (Human), UniProt O00187)
Experiment: MASP-2 co-crystallization, X-ray crystallography and structure analysis (H-bonds, van der Waals contacts);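 on Ligand-pharmacophore element distance, pharmacophore element C2: distance from averaged pharmacophore element to bound ligand; missing value means element absent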;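 on Ligand-pharmacophore element distance, pharmacophore element C3: distance from averaged pharmacophore element to bound ligand; missing value means element absent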;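 on Ligand-pharmacophore element distance, pharmacophore element C4: distance from averaged pharmacophore element to bound ligand; missing value means element absent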;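 on Ligand-pharmacophore element distance, pharmacophore element C5: distance from averaged pharmacophore element to bound ligand; missing value means element absent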
Set-up: van der Waals contact distance, MASP-2 HIS 483 atom CD2 / van der Waals contact distance, MASP-2 HIS 483 atom NE2 / van der Waals contact distance, SER 654 C to compound atom / van der Waals contact distance, SER 654 O to compound atom / van der Waals contact distance, TRP 655 C to compound atom / van der Waals contact distance, MASP-2 GLY 528 atom CA / van der Waals contact distance TRP 655 atom CZ3 / van der Waals contact distance TRP 655 atom N / van der Waals contact distance TRP 655 atom CE3 / van der Waals contact distance GLY 656 atom C / van der Waals contact distance GLY 656 atom CA / van der Waals contact distance GLY 656 atom O / van der Waals contact distance, MASP-2 TYR 607 atom CD1 / van der Waals contact distance, MASP-2 PRO 606 atom O / d(C3,CA1) / d(CA1,N1)2 / d(H4,O1) / d(H4,O2) / d(O1,O2) / d(CA1,O2) / d(CA6,O1) / d(CA6,O2) / d(CA1,C5) / d(O2,H3) / d(N2,C2) / d(CA5,N2) / d(N2,C4) / d(N2,C6) / d(N2,CA3) / d(N2,O3) / d(O4,H2): unit not given beside the values
Details: for Ligand-pharmacophore element distance, pharmacophore element C2 / Ligand-pharmacophore element distance, pharmacophore element C3 / Ligand-pharmacophore element distance, pharmacophore element C4 / Ligand-pharmacophore element distance, pharmacophore element C5 / Ligand-pharmacophore element distance, pharmacophore element C6 / Ligand-pharmacophore element distance, pharmacophore element C7 / Ligand-pharmacophore element distance, pharmacophore element CA1 / Ligand-pharmacophore element distance, pharmacophore element CA2 / Ligand-pharmacophore element distance, pharmacophore element CA3 / Ligand-pharmacophore element distance, pharmacophore element CA4 / Ligand-pharmacophore element distance, pharmacophore element CA5 / Ligand-pharmacophore element distance, pharmacophore element CA6: Table A4-1; for d(C3,CA1) / d(CA1,N1)2 / d(CA1,O1) / d(CA1,O2) / d(H4,O1) / d(H4,O2) / d(O1,O2): Table A5-1 pharmacophore: distance between elements, S2/S1 region; for d(N2,C4) / d(N2,C4)4 / d(N2,CA2) / d(O2,H3) / d(O2,N2) / d(N2,CA3) / d(N2,O3): Table A5-2 pharmacophore distance, S3/S4 region; for a(C3, CA1, O1) / a(CA1, O1, O2) / a(O1, O2, H4) / a(N1, CA1, O1) b): Table A6-1 pharmacophore angle; for a(N1, CA1, O1) b): Methyl-amino-pyridine compounds; for a(O1, O2, H3) / a(O1, O2, N2) / a(O2, N2, C4) / a(O2, N2, C4) 2 / a(O2, N2, CA2) / a(O2, N2, CA3) / a(O2, N2, O3): Table A6-2 pharmacophore angle; for Pharmacophore torsion angle a(C3, CA1, O1, H4) / Pharmacophore torsion angle a(H4, O1, O2, H3) / Pharmacophore torsion angle a(H4, O1, O2, N2) / Pharmacophore torsion angle a(N1, CA1, O1, H4) / Pharmacophore torsion angle a(O1, H4, O2, CA1): Table A7-1; for Pharmacophore torsion angle a(C3, CA1, O1, H4) / Pharmacophore torsion angle a(H4, O1, O2, H3) / Pharmacophore torsion angle a(H4, O1, O2, N2) / Pharmacophore torsion angle a(N1, CA1, O1, H4) / Pharmacophore torsion angle a(O1, H4, O2, CA1) / Pharmacophore torsion angle a(O1, O2, N2, CA2) / Pharmacophore torsion angle a(O1, O2, N2, CA3) / Pharmacophore torsion angle a(O1, O2, N2, O3): between pharmacophore elements of the bound compound; for Pharmacophore torsion angle a(O1, O2, N2, CA2) / Pharmacophore torsion angle a(O1, O2, N2, CA3) / Pharmacophore torsion angle a(O1, O2, N2, O3): Table A7-2
Procedure, shortened: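 Human MASP-2 CCP2-SP, untagged or 6His-tagged, was expressed in E. coli and crystallized. Crystals were soaked with inhibitor in crystallization solution, flash-cooled in liquid nitrogen, and diffracted with synchrotron X-rays (wavelength 1.0). Structures were solved by molecular replacement from 1Q3X and partially refined.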

Chain of MASP-2 CCP2-SP (O00187 445-686): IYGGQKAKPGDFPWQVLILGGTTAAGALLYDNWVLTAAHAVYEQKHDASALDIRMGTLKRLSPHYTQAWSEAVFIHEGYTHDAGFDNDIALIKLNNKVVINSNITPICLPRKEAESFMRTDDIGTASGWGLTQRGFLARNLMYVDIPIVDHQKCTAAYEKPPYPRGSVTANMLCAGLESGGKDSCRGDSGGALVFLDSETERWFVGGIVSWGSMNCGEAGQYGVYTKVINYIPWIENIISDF
Chain of MASP-2 CCP2-SP (O00187 364-432 partner): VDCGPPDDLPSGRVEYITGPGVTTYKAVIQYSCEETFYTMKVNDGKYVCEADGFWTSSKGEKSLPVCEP

In the case of `Cc1nc(N)ccc1CNC(=O)[C@H](C)NC(=O)[C@H]1C[C@H](Cc2cccc(Cl)c2)CN1.Cl.Cl` [1328_4], the “Ligand-pharmacophore element distance, pharmacophore element C2” value is reported as 0, the “Ligand-pharmacophore element distance, pharmacophore element C3” value is reported as 0.18 and the “Ligand-pharmacophore element distance, pharmacophore element C4” value is reported as 1.86. The “Ligand-pharmacophore element distance, pharmacophore element C5” value was 0, the “Ligand-pharmacophore element distance, pharmacophore element C6” value was 0 and the “Ligand-pharmacophore element distance, pharmacophore element C7” value was 0. For the same molecule, the “Ligand-pharmacophore element distance, pharmacophore element CA1” value was 0.5, the “Ligand-pharmacophore element distance, pharmacophore element CA2” value was 0.3 and the “Ligand-pharmacophore element distance, pharmacophore element CA3” value was 0. For the same molecule, the “Ligand-pharmacophore element distance, pharmacophore element CA4” value was 0, the “Ligand-pharmacophore element distance, pharmacophore element CA5” value was 0 and the “Ligand-pharmacophore element distance, pharmacophore element CA6” value was 0. The “d(C3,CA1)” value was 2.85, the “d(CA1,N1)2” value was 1.37 and the “d(CA1,O1)” value was 5.05. The “d(CA1,O2)” value was 3.83, the “d(H4,O1)” value was 4.21 and the “d(H4,O2)” value was 2.53. For the same molecule, the “d(O1,O2)” value was 3.71, the “d(N2,C4)” value was 7.92 and the “d(N2,C4)4” value was 7.92. For the same molecule, the “d(N2,CA2)” value was 6.17, the “d(O2,H3)” value was 4.71 and the “d(O2,N2)” value was 2.79. For the same molecule, the “a(C3, CA1, O1)” value was 151.05, the “a(CA1, O1, O2)” value was 96.00 and the “a(O1, O2, H4)” value was 119.12. For the same molecule, the “a(N1, CA1, O1) b)” value was 173.49, the “a(O1, O2, H3)” value was 150.66 and the “a(O1, O2, N2)” value was 142.82. For the same molecule, the “a(O2, N2, C4)” value was 160.57, the “a(O2, N2, C4) 2” value was 109.36 and the “a(O2, N2, CA2)” value was 156.25. The “Pharmacophore torsion angle a(C3, CA1, O1, H4)” value was 66.00, the “Pharmacophore torsion angle a(H4, O1, O2, H3)” value was 44.95 and the “Pharmacophore torsion angle a(H4, O1, O2, N2)” value was 135.08. For the same molecule, the “Pharmacophore torsion angle a(N1, CA1, O1, H4)” value was 58.16, the “Pharmacophore torsion angle a(O1, H4, O2, CA1)” value was −91.48 and the “Pharmacophore torsion angle a(O1, O2, N2, CA2)” value was 128.70.
`CC(=O)Nc1ccc(CCNC(CCc2ccccc2)C(=O)NC(C)C(=O)NCc2ccc(C(=N)N)cc2)cc1.Cl.Cl` (stereo not shown) [1345_1] was tested, and the “Ligand-pharmacophore element distance, pharmacophore element C2” value was 0, the “Ligand-pharmacophore element distance, pharmacophore element C3” value was 0 and the “Ligand-pharmacophore element distance, pharmacophore element C4” value was 0. For the same molecule, the “Ligand-pharmacophore element distance, pharmacophore element C5” value was 0, the “Ligand-pharmacophore element distance, pharmacophore element C6” value was 0 and the “Ligand-pharmacophore element distance, pharmacophore element C7” value was 0. The “Ligand-pharmacophore element distance, pharmacophore element CA1” value was 0.51, the “Ligand-pharmacophore element distance, pharmacophore element CA2” value was 1.2 and the “Ligand-pharmacophore element distance, pharmacophore element CA3” value was 1.44. For the same molecule, the “Ligand-pharmacophore element distance, pharmacophore element CA4” value was 0, the “Ligand-pharmacophore element distance, pharmacophore element CA5” value was 0 and the “Ligand-pharmacophore element distance, pharmacophore element CA6” value was 0. For the same molecule, the “d(CA1,O1)” value was 4.52, the “d(CA1,O2)” value was 4.49 and the “d(H4,O1)” value was 4.08. The “d(H4,O2)” value was 3.57, the “d(O1,O2)” value was 3.48 and the “d(N2,CA2)” value was 6.14. The “d(N2,CA3)” value was 5.17, the “d(N2,O3)” value was 8.75 and the “d(O2,H3)” value was 5.98. For the same molecule, the “d(O2,N2)” value was 2.90, the “a(CA1, O1, O2)” value was 112.39 and the “a(O1, O2, H4)” value was 126.38. The “a(O1, O2, H3)” value was 149.79, the “a(O1, O2, N2)” value was 134.33 and the “a(O2, N2, CA2)” value was 153.15. For the same molecule, the “a(O2, N2, CA3)” value was 153.91, the “a(O2, N2, O3)” value was 163.54 and the “Pharmacophore torsion angle a(H4, O1, O2, H3)” value was 39.71. For the same molecule, the “Pharmacophore torsion angle a(H4, O1, O2, N2)” value was 114.36, the “Pharmacophore torsion angle a(O1, H4, O2, CA1)” value was −62.84 and the “Pharmacophore torsion angle a(O1, O2, N2, CA2)” value was 138.94. For the same molecule, the “Pharmacophore torsion angle a(O1, O2, N2, CA3)” value was −27.29 and the “Pharmacophore torsion angle a(O1, O2, N2, O3)” value was −11.99.
In the case of `CC(=O)Nc1ccc(CCNC(CCc2ccccc2)C(=O)NC(C)C(=O)NCc2ccc(C(=N)N)cc2)cc1.Cl.Cl` (stereo not shown) [1345_2], the “Ligand-pharmacophore element distance, pharmacophore element C2” value is reported as 0, the “Ligand-pharmacophore element distance, pharmacophore element C3” value is reported as 0 and the “Ligand-pharmacophore element distance, pharmacophore element C4” value is reported as 0. For the same molecule, the “Ligand-pharmacophore element distance, pharmacophore element C5” value was 0, the “Ligand-pharmacophore element distance, pharmacophore element C6” value was 0 and the “Ligand-pharmacophore element distance, pharmacophore element C7” value was 0. The “Ligand-pharmacophore element distance, pharmacophore element CA1” value was 0.45, the “Ligand-pharmacophore element distance, pharmacophore element CA2” value was 0.89 and the “Ligand-pharmacophore element distance, pharmacophore element CA3” value was 1.13. The “Ligand-pharmacophore element distance, pharmacophore element CA4” value was 0, the “Ligand-pharmacophore element distance, pharmacophore element CA5” value was 0 and the “Ligand-pharmacophore element distance, pharmacophore element CA6” value was 0. The “d(CA1,O1)” value was 4.58, the “d(CA1,O2)” value was 4.16 and the “d(H4,O1)” value was 4.97. The “d(H4,O2)” value was 4.32, the “d(O1,O2)” value was 3.32 and the “d(N2,CA2)” value was 5.98. For the same molecule, the “d(N2,CA3)” value was 5.15, the “d(N2,O3)” value was 8.73 and the “d(O2,H3)” value was 5.51. The “d(O2,N2)” value was 2.87, the “a(CA1, O1, O2)” value was 105.43 and the “a(O1, O2, H4)” value was 138.87. The “a(O1, O2, H3)” value was 152.27, the “a(O1, O2, N2)” value was 142.63 and the “a(O2, N2, CA2)” value was 153.90. For the same molecule, the “a(O2, N2, CA3)” value was 151.66, the “a(O2, N2, O3)” value was 162.76 and the “Pharmacophore torsion angle a(H4, O1, O2, H3)” value was 49.59. The “Pharmacophore torsion angle a(H4, O1, O2, N2)” value was 128.64, the “Pharmacophore torsion angle a(O1, H4, O2, CA1)” value was −68.67 and the “Pharmacophore torsion angle a(O1, O2, N2, CA2)” value was 129.85. The “Pharmacophore torsion angle a(O1, O2, N2, CA3)” value was −34.52 and the “Pharmacophore torsion angle a(O1, O2, N2, O3)” value was −20.78.
In the case of `Cc1nc(N)ccc1CNC(=O)[C@H](C)NC(=O)[C@H]1C[C@H](Cc2ccccc2Br)CN1.O=C(O)C(F)(F)F.O=C(O)C(F)(F)F` [1372_A], the “Ligand-pharmacophore element distance, pharmacophore element C2” value is reported as 0, the “Ligand-pharmacophore element distance, pharmacophore element C3” value is reported as 0.09 and the “Ligand-pharmacophore element distance, pharmacophore element C4” value is reported as 1.91. The “Ligand-pharmacophore element distance, pharmacophore element C5” value was 0, the “Ligand-pharmacophore element distance, pharmacophore element C6” value was 0 and the “Ligand-pharmacophore element distance, pharmacophore element C7” value was 0. The “Ligand-pharmacophore element distance, pharmacophore element CA1” value was 0.55, the “Ligand-pharmacophore element distance, pharmacophore element CA2” value was 0.47 and the “Ligand-pharmacophore element distance, pharmacophore element CA3” value was 0. For the same molecule, the “Ligand-pharmacophore element distance, pharmacophore element CA4” value was 0, the “Ligand-pharmacophore element distance, pharmacophore element CA5” value was 0 and the “Ligand-pharmacophore element distance, pharmacophore element CA6” value was 0. The “d(C3,CA1)” value was 2.85, the “d(CA1,N1)2” value was 1.38 and the “d(CA1,O1)” value was 4.38. For the same molecule, the “d(CA1,O2)” value was 3.94, the “d(H4,O1)” value was 4.40 and the “d(H4,O2)” value was 3.88. The “d(O1,O2)” value was 3.32, the “d(N2,C4)” value was 6.06 and the “d(N2,C4)4” value was 6.06. The “d(N2,CA2)” value was 5.99, the “d(O2,H3)” value was 2.30 and the “d(O2,N2)” value was 2.66. For the same molecule, the “a(C3, CA1, O1)” value was 149.88, the “a(CA1, O1, O2)” value was 106.33 and the “a(O1, O2, H4)” value was 133.23. For the same molecule, the “a(N1, CA1, O1) b)” value was 174.16, the “a(O1, O2, H3)” value was 137.15 and the “a(O1, O2, N2)” value was 140.15. For the same molecule, the “a(O2, N2, C4)” value was 159.60, the “a(O2, N2, C4) 2” value was 127.51 and the “a(O2, N2, CA2)” value was 155.91. The “Pharmacophore torsion angle a(C3, CA1, O1, H4)” value was 25.78, the “Pharmacophore torsion angle a(H4, O1, O2, H3)” value was 99.84 and the “Pharmacophore torsion angle a(H4, O1, O2, N2)” value was 136.36. The “Pharmacophore torsion angle a(N1, CA1, O1, H4)” value was 5.73, the “Pharmacophore torsion angle a(O1, H4, O2, CA1)” value was −83.68 and the “Pharmacophore torsion angle a(O1, O2, N2, CA2)” value was 129.48.
